Holding throughout (type): cell-based, hepatitis B virus
For assay [1], the system named is HBV. Briefly: Inhibitory effect on HBV infection in infection model HepaRG M14A (drug before infection). As to conditions: 1, 5, 25 μM, treatment before infection. How it is done: HepaRG was a hepatic progenitor cell line with differentiation potential which was isolated from the tumor tissue of a hepatitis C patient. After two weeks of cell plating, the cellular differentiation was induced with 2% DMSO (2 mL of DMSO was added to per 100 mL of cell culture medium) for two weeks. Finally, about 50% of the cells differentiated into hepatocyte-like cells, and the other 50% of the cells differentiated into cholangiocyte-like cells. Among them, hepatocyte-like cells supported HBV infection with an infection efficiency of about 20%. Through genetic modification of HepaRG, the HNF4A and FoxM1 genes were integrated into HepaRG cells, and a HepaRG M14A cell line that could complete differentiation and support HBV infection independent of DMSO was obtained by screening. (For the construction method of this cell model, please refer to: Zhao Jinghua. Development, Optimization and Preliminary Application of in vitro models supporting HBV Infection [D]. Xiamen University, 2016.)
This experiment was carried out in a 24-well cell culture plate. […] About 1.5×10^5 HepaRG M14A cells were plated in each well, and 500 μL of medium D was added to each well. After cell plating, medium D was replaced every 2 days. After 13 days of cell plating, medium D was replaced with drug-containing medium D for drug treatment. After 24 hours of drug treatment, the cells were infected with HBV, and the amount of HBV for infection in each well was 1000 MOI. Before infection, an HBV solution was obtained by diluting HBV in medium E, and the infection volume was 250 μL per well. During infection, the cell supernatant was first removed by suction, the HBV solution was added to the cells, then the cells were incubated for 24 hours, and then the supernatant was collected as the sample of Day 0. Then, the cells were washed three times with PBS warmed in bath at 37° C., and fresh drug-containing medium D (500 μL per well) was used for replacement, then the supernatant was collected every 2 days for detection, and fresh drug-containing medium D was used for replacement, until the 8th day, all the supernatant and cells were collected for related detection. The detection items include HBsAg, HBeAg, HBV DNA, HBV cccDNA, and for the detection method, please refer to Example 1.

In assay [2] the test system is HBV. Briefly: HBcAg immunofluorescence detection in infected HepG2-hNTCP 2B1. As to conditions: HepG2-hNTCP 2B1 cells after infection; 5 μM, day 6 to day 12. How it is done: Southern blot experiment was carried out on a 10 cm^2 culture plate. About 5×10^6 HepG2-hNTCP 2B1 cells were plated in each 10 cm^2 culture plate, and medium B was added. After the cells adhered, medium A was used for replacement to perform the induction with Doxycycline during the whole experiment. HBV infection was performed 4 days after the induction with Doxycycline, and the amount of HBV for infection was 1000 MOI. Before infection, HBV was diluted in medium C to obtain HBV solution, and the infection volume was 5 mL. During infection, the cell supernatant was first removed by suction, the HBV solution was added to the cells, the cells were incubated for 24 hours, then the supernatant was collected as the sample of Day 0. Then the cells were washed three times with PBS, and fresh medium A was used for replacement. After that, the supernatant was collected every two days for detection, fresh medium A was used for replacement. […]
The HBcAg immunofluorescence staining involved in this experiment was performed directly on adherent cells. […] Photographing: Photographing was performed with a high-content confocal microscope (PerkinElmer, Operetta CLS), and the mean fluorescence intensity of green fluorescence was analyzed.

Assay [3] relates to HBV. Briefly: Therapeutic effect on human primary hepatocytes infected by HBV (drug from day 8 after infection). As to conditions: drug added 8 days after infection. How it is done:
The drug to be tested and the positive control drug were diluted with medium H to the required concentrations, and to the blank group the same volume of medium H without drug was added.
Primary hepatocytes were isolated from humanized mice transplanted with primary human hepatocytes through perfusion technique, directly cultured in 24-well plates after counting (5×10^5 primary hepatocytes per well), and medium H was added to maintain hepatocyte morphology. Infection with HBV was performed 24 hours after culturing, the amount of HBV for infection in each well was 2000 MOI. Before infection, HBV was first dissolved in medium I to obtain HBV solution, and the infection volume was 250 μL/well. During infection, the cell supernatant was first removed by suction, the HBV solution was added to the cells, the cells were incubated for 24 hours, then the supernatant was collected as the sample of Day 0, and then the supernatant was collected every two days for detection, fresh medium H was used for replacement. On the 8th day, fresh drug-containing medium H was used for replacement to start the drug treatment, until the 14th day, all the supernatant and the cells were collected for relevant detection. The detection items included: HBsAg, HBeAg, HBV DNA, HBV cccDNA, and for the detection method, please refer to Example 1.

The mark [4] stands for this setting: to day 14, p<0.05, more obvious at 5 μM and 25 μM.

SMILES strings stand for the structures.

Consider `CC1(C)CCC(C)(C)c2cc(Cn3cccn3)c(/C=C/c3ccc(C(=O)O)cc3)cc21` [Palovarotene], for which, in assay [1] (to day 8, p<0.0001), the “level of intracellular HBV DNA” value is recorded as “significantly reduce” and the “level of intracellular cccDNA” value was “significantly reduce”. Moreover, in assay [1] (to day 8, p<0.05), the “level of HBeAg in cell supernatant” value is “significantly reduce” and the “level of HBsAg in cell supernatant” value is reported as “significantly reduce”. Also, the “positive rate of HBcAg (immunofluorescence)” value in assay [2] was “significantly reduce the positive rate”. For the same molecule, the “HBV cccDNA” value in assay [3] (to day 14, 25 μM, p<0.01) was “significant inhibitory effects”. In assay [3] (to day 14, 25 μM, p<0.05), the “HBV DNA” value is “significant inhibitory effects”. Moreover, in assay [3] (setting [4]), the “level of HBeAg in the cell supernatant” value is listed as “significantly inhibited” and the “level of HBsAg in the cell supernatant” value was “significantly inhibited”.

The values above are taken from patent US12569468B2, “Use of palovarotene in treatment against HBV virus” (YANG SHENG TANG COMPANY, LTD., priority 2020, dated 2026).
